The test concerns the target T1, human PTH1 receptor (Homo sapiens, UniProt Q03431).
T1 sequence (Q03431 27-593): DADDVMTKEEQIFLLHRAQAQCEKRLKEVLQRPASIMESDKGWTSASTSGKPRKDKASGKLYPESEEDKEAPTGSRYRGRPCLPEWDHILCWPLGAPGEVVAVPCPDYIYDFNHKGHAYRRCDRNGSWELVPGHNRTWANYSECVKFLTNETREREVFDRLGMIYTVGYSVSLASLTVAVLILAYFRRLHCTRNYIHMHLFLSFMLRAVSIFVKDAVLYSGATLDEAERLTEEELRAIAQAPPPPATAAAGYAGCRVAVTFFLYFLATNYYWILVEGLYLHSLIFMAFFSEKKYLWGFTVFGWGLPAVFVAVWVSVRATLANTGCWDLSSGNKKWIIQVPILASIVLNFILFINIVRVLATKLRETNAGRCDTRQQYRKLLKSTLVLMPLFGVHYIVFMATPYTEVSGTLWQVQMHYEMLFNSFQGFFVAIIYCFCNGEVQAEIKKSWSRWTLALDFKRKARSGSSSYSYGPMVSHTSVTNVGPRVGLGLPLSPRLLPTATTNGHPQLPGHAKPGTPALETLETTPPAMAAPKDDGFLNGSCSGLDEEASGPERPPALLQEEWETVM
Description: In vitro cAMP signal activity in HKRK-B7 cells (LLC-PK1 cells overexpressing the human PTH1 receptor). Conditions: HKRK-B7 cells; compound at 1×10^−3 M; cAMP produced as percentage of that produced by hPTH(1-34) at 100 nM. The test is classed as cell-based.

23 compounds from patent publication US9169254B2, “Spiroimidazolone derivative” (Chugai Seiyaku Kabushiki Kaisha, priority 2009, dated 2015) can be followed below.

Regarding `Cc1cc(N(C)C(N)=O)cc(C)c1CCS(=O)(=O)N1CCC2(CC1)N=C(C1CC(C)(C)CC(C)(C)C1)NC2=O` [Compound 1298, 1-(3,5-Dimethyl-4-{2-[4-oxo-2-(3,3,5,5-tetramethyl-cyclohexyl)-1,3,8-triaza-spiro[4.5]dec-1-ene-8-sulfonyl]-ethyl}-phenyl)-1-methyl-urea], the “cAMP production activity (%)” value stood at 117%.

In the case of `CC(=O)N(C)c1cccc(CCS(=O)(=O)N2CCC3(CC2)N=C(c2cccc(OC(F)(F)F)c2)NC3=O)c1C` [Compound 264, N-methyl-N-(2-methyl-3-{2-[4-oxo-2-(3-trifluoromethoxy-phenyl)-1,3,8-triaza-spiro[4.5]dec-1-ene-8-sulfonyl]-ethyl}-phenyl)-acetamide], the “cAMP production activity (%)” value turned out to be 69%. Turning to `Cc1cc(NC(=O)[C@@H](N)CO)ccc1CCS(=O)(=O)N1CCC2(CC1)N=C(c1cccc(C(F)(F)F)c1)NC2=O` [Compound 886, (S)-2-amino-3-hydroxy-N-(3-methyl-4-{2-[4-oxo-2-(3-trifluoromethyl-phenyl)-1,3,8-triaza-spiro[4.5]dec-1-ene-8-sulfonyl]-ethyl}-phenyl)-propionamide], the “cAMP production activity (%)” value is 68%. On to `CCCOC1CCC(C2=NC3(CCN(S(=O)(=O)CCc4ccc(NC(C)=O)cc4C)CC3)C(=O)N2)CC1` (centres unmarked) [Compound 911, N-(3-methyl-4-{2-[4-oxo-2-(4-propoxy-cyclohexyl)-1,3,8-triaza-spiro[4.5]dec-1-ene-8-sulfonyl]-ethyl}-phenyl)-acetamide], for which the “cAMP production activity (%)” value came out at 71%. Consider `Cc1cc(C(=O)N2CCN(C)CC2)ccc1CCS(=O)(=O)N1CCC2(CC1)N=C(c1cccc(OC(F)(F)F)c1)NC2=O` [Compound 843, 8-{2-[2-methyl-4-(4-methyl-piperazine-1-carbonyl)-phenyl]-ethanesulfonyl}-2-(3-trifluoromethoxy-phenyl)-1,3,8-triaza-spiro[4.5]dec-1-en-4-one], for which the “cAMP production activity (%)” value was determined as 77%. The figure for `Cc1cc(N2C(=O)CC[C@@H]2CO)ccc1/C=C/S(=O)(=O)N1CCC2(CC1)N=C(c1ccc(F)c(C(F)(F)F)c1)NC2=O` [Compound 620, 2-(4-fluoro-3-trifluoromethyl-phenyl)-8-{(E)-2-[4-((R)-2-hydroxymethyl-5-oxo-pyrrolidin-1-yl)-2-methyl-phenyl]-ethenesulfonyl}-1,3,8-triaza-spiro[4.5]dec-1-en-4-one] is 112%. Regarding `CN(C)C(=O)c1ccc(CCCS(=O)(=O)N2CCC3(CC2)N=C(C2CCCCC2)NC3=O)cc1` [Compound 324, 4-[3-(2-cyclohexyl-4-oxo-1,3,8-triaza-spiro[4.5]dec-1-ene-8-sulfonyl)-propyl]-N,N-dimethyl-benzamide], the “cAMP production activity (%)” value was 30%.

With `Cc1cc(C(=O)N2CCCN2)cc(C)c1CCS(=O)(=O)N1CCC2(CC1)N=C(C1CCC(CCC(F)(F)F)CC1)NC2=O` (centres unmarked) [Compound 1386, 8-{2-[2,6-dimethyl-4-(pyrazolidine-1-carbonyl)-phenyl]-ethanesulfonyl}-2-[4-(3,3,3-trifluoro-propyl)-cyclohexyl]-1,3,8-triaza-spiro[4.5]dec-1-en-4-one], the “cAMP production activity (%)” value came to 92%.

In the case of `CC(=O)Nc1ccc(CCS(=O)(=O)N2CCC3(CC2)N=C(C2CCC(CC(F)F)CC2)NC3=O)c(C)c1` (centres unmarked) [Compound 1060, N-[4-(2-{2-[4-(2,2-Difluoro-ethyl)-cyclohexyl]-4-oxo-1,3,8-triaza-spiro[4.5]dec-1-ene-8-sulfonyl}-ethyl)-3-methyl-phenyl]-acetamide], the “cAMP production activity (%)” value was found to be 58%. Regarding `Cc1cc(C(=O)O)cc(C)c1/C=C/S(=O)(=O)N1CCC2(CC1)N=C(C1CCC(CCC(F)(F)F)CC1)NC2=O` (centres unmarked) [Compound 547, 3,5-dimethyl-4-((E)-2-{4-oxo-2-[4-(3,3,3-trifluoro-propyl)-cyclohexyl]-1,3,8-triaza-spiro[4.5]dec-1-ene-8-sulfonyl}-vinyl)-benzoic acid], the “cAMP production activity (%)” value is given as 52%. In the case of `CC(C)COC(=O)NCc1ccc(CCS(=O)(=O)N2CCC3(CC2)N=C(C2CCCCC2)NC3=O)cc1` [Compound 658, {4-[2-(2-Cyclohexyl-4-oxo-1,3,8-triaza-spiro[4.5]dec-1-ene-8-sulfonyl)-ethyl]-benzyl}-carbamic acid isobutyl ester], the “cAMP production activity (%)” value came out at 84%. Turning to `Cc1cc(C(=O)N(C)CC(=O)O)cc(C)c1/C=C/S(=O)(=O)N1CCC2(CC1)N=C(c1cccc(C(F)(F)F)c1)NC2=O` [Compound 452, [(3,5-Dimethyl-4-{(E)-2-[4-oxo-2-(3-trifluoromethyl-phenyl)-1,3,8-triaza-spiro[4.5]dec-1-ene-8-sulfonyl]-vinyl}-benzoyl)-methyl-amino]-acetic acid], the “cAMP production activity (%)” value came out at 58%. Turning to `CC(=O)OC[C@H](CN(C(C)=O)c1ccc(CCS(=O)(=O)N2CCC3(CC2)N=C(c2cccc(C(F)(F)F)c2)NC3=O)c(C)c1)OC(C)=O` [Compound 150, Acetic acid (S)-1-acetoxymethyl-2-[acetyl-(3-methyl-4-{2-[4-oxo-2-(3-trifluoromethyl-phenyl)-1,3,8-triaza-spiro[4.5]dec-1-ene-8-sulfonyl]-ethyl}-phenyl)-amino]-ethyl ester], the “cAMP production activity (%)” value worked out at 62%. For `CC(=O)N(C)c1cc(C)c(/C=C/S(=O)(=O)N2CCC3(CC2)N=C(c2cccc(OC(F)(F)F)c2)NC3=O)c(C)c1` [Compound 239, N-(3,5-dimethyl-4-{(E)-2-[4-oxo-2-(3-trifluoromethoxy-phenyl)-1,3,8-triaza-spiro[4.5]dec-1-ene-8-sulfonyl]-vinyl}-phenyl)-N-methyl-acetamide], the “cAMP production activity (%)” value worked out at 80%. With `Cc1cc(N(C)C(N)=O)cc(C)c1CCS(=O)(=O)N1CCC2(CC1)N=C(C1CCC(C(F)(F)F)CC1)NC2=O` (centres unmarked) [Compound 472, 1-(3,5-Dimethyl-4-{2-[4-oxo-2-(4-trifluoromethyl-cyclohexyl)-1,3,8-triaza-spiro[4.5]dec-1-ene-8-sulfonyl]-ethyl}-phenyl)-1-methyl-urea] the figure was 104%. With `Cc1cc(N(C)C(N)=O)cc(C)c1CCS(=O)(=O)N1CCC2(CC1)N=C(CCCCCCCCC(F)F)NC2=O` [Compound 1323, 1-(4-{2-[2-(9,9-Difluoro-nonyl)-4-oxo-1,3,8-triaza-spiro[4.5]dec-1-ene-8-sulfonyl]-ethyl}-3,5-dimethyl-phenyl)-1-methyl-urea], the “cAMP production activity (%)” value turned out to be 78%. Regarding `CCCCCCCCCC1=NC2(CCN(S(=O)(=O)CCc3c(C)cc(C(=O)N4CCCC4)cc3C)CC2)C(=O)N1` [Compound 980, 8-{2-[2,6-Dimethyl-4-(pyrrolidine-1-carbonyl)-phenyl]-ethanesulfonyl}-2-nonyl-1,3,8-triaza-spiro[4.5]dec-1-en-4-one], the “cAMP production activity (%)” value is given as 85%.

With `CC(=CS(=O)(=O)N1CCC2(CC1)N=C(C1CCC(C)CC1)NC2=O)c1c(C)cc(N(C)C(N)=O)cc1C` (centres unmarked) [Compound 741, 1-(3,5-dimethyl-4-{1-methyl-2-[2-(4-methyl-cyclohexyl)-4-oxo-1,3,8-triaza-spiro[4.5]dec-1-ene-8-sulfonyl]-vinyl}-phenyl)-1-methyl-urea], the “cAMP production activity (%)” value amounted to 91%.

Turning to `CC[C@H]1CC[C@H](C2=NC3(CCN(S(=O)(=O)CCc4ccc(NC5=NCCS5)cc4C)CC3)C(=O)N2)CC1` [Compound 1295, 8-{2-[4-(4,5-Dihydro-thiazol-2-ylamino)-2-methyl-phenyl]-ethanesulfonyl}-2-(4-ethyl-cyclohexyl)-1,3,8-triaza-spiro[4.5]dec-1-en-4-one], the “cAMP production activity (%)” value was found to be 73%. In the case of `Cc1cc(N2C(=O)CNC2=O)ccc1CCS(=O)(=O)N1CCC2(CC1)N=C(C1CCC(/C=C/C(F)F)CC1)NC2=O` (centres unmarked) [Compound 945, 3-[4-(2-{2-[4-((E)-3,3-difluoro-propenyl)-cyclohexyl]-4-oxo-1,3,8-triaza-spiro[4.5]dec-1-ene-8-sulfonyl}-ethyl)-3-methyl-phenyl]-imidazolidine-2,4-dione], the “cAMP production activity (%)” value is given as 77%.

With `O=C1NC(c2cccc(OC(F)(F)F)c2)=NC12CCN(S(=O)(=O)CCc1cc(F)c(OCCC(O)CO)c(F)c1)CC2` (centres unmarked) [Compound 860, 8-{2-[4-(3,4-dihydroxy-butoxy)-3,5-difluoro-phenyl]-ethanesulfonyl}-2-(3-trifluoromethoxy-phenyl)-1,3,8-triaza-spiro[4.5]dec-1-en-4-one], the “cAMP production activity (%)” value was 50%. As to `CC[C@H]1CC[C@H](C2=NC3(CCN(S(=O)(=O)/C=C/c4ccc(N5C(=O)NC(=O)C5C)cc4C)CC3)C(=O)N2)CC1` (some centres unmarked) [Compound 625, 1-(4-{(E)-2-[2-(4-ethyl-cyclohexyl)-4-oxo-1,3,8-triaza-spiro[4.5]dec-1-ene-8-sulfonyl]-vinyl}-3-methyl-phenyl)-5-methyl-imidazolidine-2,4-dione], the “cAMP production activity (%)” value is listed as 47%. With `CC[C@H]1CC[C@H](C2=NC3(CCN(S(=O)(=O)/C=C/c4ccc(N5C(=O)NC(=O)C5(C)C)cc4C)CC3)C(=O)N2)CC1` [Compound 626, 1-(4-{(E)-2-[2-(4-ethyl-cyclohexyl)-4-oxo-1,3,8-triaza-spiro[4.5]dec-1-ene-8-sulfonyl]-vinyl}-3-methyl-phenyl)-5,5-dimethyl-imidazolidine-2,4-dione] the figure was 53%.
